These are literature values, as cited in US20040208936A1, “Novel compositions” (priority 2002, published 2004).

Structures are written as SMILES. Converted amounts (≈) assume the structure as drawn.

The test system of this data set is S pneumoniae. Conditions: some 10% of pneumococci.

Regarding `CC1(C)S[C@@H]2[C@H](NC(=O)[C@H](N)c3ccc(O)cc3)C(=O)N2[C@H]1C(=O)O` [Amoxicillin], the MIC was 2 µg/mL (≈ 5.47 µM).
